In patent publication US20030199515A1, “Method for the preparation of crystalline tetrahydrobenzothiepines” (G.D. SEARLE, LLC, priority 2001, published 2003):

Experiment: Water uptake experiments (Dynamic Vapor Sorption water sorption/desorption isotherms)
Format: physicochemical
Conditions: for hygroscopicity (in words): crystalline form
Description: Water sorption experiments are performed on a Dynamic Vapor Sorption (DVS) apparatus (DVS-1000 manufactured by Surface Measurements Systems, Inc.). Experiments are performed at 25° C. by initially drying the material of interest (about 10 mg sample) from 30% relative humidity (RH) (ambient room condition) to about […] in a stepwise fashion (10% RH step) by purging with dry nitrogen until no further weight change was observed. The samples are then exposed to a stepwise (10% RH steps) increase in RH from about 0 to about 90% RH. Each successive step is initiated when the change in weight over time at the relative humidity was less than 0.0003% ((dm/dt)/m0×100, where m is mass in mg, m0 is initial mass, and t is time in minutes). The sample is then taken through the reverse of the stepwise % RH increase. The data are collected on a computer and analyzed using SMS′ proprietary MS-Excel macro interface software.

| hygroscopicity (in words) | hygroscopicity (in words) (listed as form II) | weight gain of a dry sample (% of its own weight) when equilibrated under humid air (dry sample, equilibrated under 80% relative humidity (RH) air at 25° C.) | SMILES |
| --- | --- | --- | --- |
| hygroscopic |  |  | CCCCC1(CCCC)CS(=O)(=O)c2ccc(N(C)C)cc2[C@@H](c2ccc(OCc3ccc(C[N+]45CCN(CC4)CC5)cc3)cc2)[C@H]1O.[Cl-] [Form I, (4R,5R)-1-((4-(4-(3,3-dibutyl-7-(dimethylamino)-2,3,4,5-tetrahydro-4-hydroxy-1,1-dioxido-1-benzithiepin-5-yl)phenoxy)methyl)phenyl)methyl-4-aza-1-azoniabicyclo[2.2.2]octane Chloride] |
| essentially nonhygroscopic | essentially non-hygroscopic | less than 1% | CCCCC1(CCCC)CS(=O)(=O)c2ccc(N(C)C)cc2[C@@H](c2ccc(OCc3ccc(C[N+]45CCN(CC4)CC5)cc3)cc2)[C@H]1O.[Cl-] [Form II, (4R,5R)-1-((4-(4-(3,3-dibutyl-7-(dimethylamino)-2,3,4,5-tetrahydro-4-hydroxy-1,1-dioxido-1-benzithiepin-5-yl)phenoxy)methyl)phenyl)methyl-4-aza-1-azoniabicyclo[2.2.2]octane Chloride] |
